# Measurements published in patent publication US7449465B2, “Triazolopyrimidine derivatives as glycogen synthase kinase 3 inhibitors” (Janssen Pharmaceutica, N.V., priority 2003, dated 2008).
# Key:
# GSK3alpha = GSK3alpha (Homo sapiens, UniProt P49840); assay: GSK3alpha assay (same as the GSK3beta assay, 0.25 ng/μl GSK3alpha); type: biochemical; conditions: ranges of pIC50 (−log IC50 (M)), 1 μM ATP, read-out: GSK3a pIC50 (converted)
# Procedure: (§1) GSK3beta assays were performed at room temperature in a 100 μl reaction volume of 25 mM Tris (pH 7.4) containing 10 mM MgCl2.6H2O, 1 mM DTI, 0.1 mgiml BSA, 5% glycerol and containing 5.7 ng/μl GSK3β, 5 μM biotinylated phosphorylated CREB peptide, 1 μM ATP, 0.85 μCi/ml ATP-P^33 and a suitable amount of a test compound of formula (I). After one hour, the reaction was terminated by adding 70 μl of Stop mix (0.1 mM ATP, 5 mg/ml streptavidin coated PVT SPA bead pH 11.0). The beads to which the phosphorylated CREB peptide is attached were allowed to settle overnight and the radioactivity of the beads was counted in a microtiterplate scintillation counter and compared with the results obtained in a control experiment (without the presence of a test compound) in order to determine the percentage of GSK3β inhibition. The IC50 value, i.e. the concentration (M) of the test compound at which 50% of GSK3β is inhibited, was calculated from the dose response curve obtained by performing the above-described GSK3β assay in the presence of different amounts of the test compound.
# The GSK3alpha assay was performed in the same way as described above for the GSK3beta assay except for the concentration of GSK3alpha which is 0.25 ng/μl.
# GSK3β = GSK3β (Homo sapiens, UniProt P49841); assay: GSK3beta assay (SPA, biotinylated phosphorylated CREB peptide, ATP-P33); type: biochemical; conditions: ranges of pIC50 (−log IC50 (M)); 1 μM ATP, room temperature, one hour; read-out: GSK3b pIC50 (converted)
# Procedure: as §1
# Chain of GSK3β (P49841 whole entry, species assumed): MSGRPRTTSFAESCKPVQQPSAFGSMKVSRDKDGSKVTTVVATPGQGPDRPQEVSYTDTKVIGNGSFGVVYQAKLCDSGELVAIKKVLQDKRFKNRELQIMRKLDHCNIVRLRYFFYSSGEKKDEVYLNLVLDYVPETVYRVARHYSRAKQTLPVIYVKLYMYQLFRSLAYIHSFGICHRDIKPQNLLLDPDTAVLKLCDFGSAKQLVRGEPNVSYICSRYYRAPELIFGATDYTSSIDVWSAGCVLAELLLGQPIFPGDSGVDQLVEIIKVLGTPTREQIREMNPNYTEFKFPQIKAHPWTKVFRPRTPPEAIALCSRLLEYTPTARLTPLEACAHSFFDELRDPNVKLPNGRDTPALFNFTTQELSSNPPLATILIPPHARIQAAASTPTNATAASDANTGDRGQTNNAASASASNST
# Chain of GSK3alpha (P49840 whole entry, species assumed): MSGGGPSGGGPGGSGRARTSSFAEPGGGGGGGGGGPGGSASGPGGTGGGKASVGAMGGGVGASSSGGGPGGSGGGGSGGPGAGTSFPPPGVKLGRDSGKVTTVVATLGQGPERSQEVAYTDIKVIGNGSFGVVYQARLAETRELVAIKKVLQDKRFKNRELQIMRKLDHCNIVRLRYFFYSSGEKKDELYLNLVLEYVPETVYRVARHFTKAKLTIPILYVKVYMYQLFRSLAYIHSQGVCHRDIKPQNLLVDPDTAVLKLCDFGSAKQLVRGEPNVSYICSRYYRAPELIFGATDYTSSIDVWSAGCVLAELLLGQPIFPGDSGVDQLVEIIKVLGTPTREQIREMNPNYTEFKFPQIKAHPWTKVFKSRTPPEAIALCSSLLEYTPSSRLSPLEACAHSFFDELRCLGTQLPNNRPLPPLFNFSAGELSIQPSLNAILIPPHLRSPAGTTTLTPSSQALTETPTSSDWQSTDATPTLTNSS
SMILES,IC50 (GSK3alpha),IC50 (GSK3β)
Nc1nccc(-c2cccc(Nc3ncc4nnn(-c5cccc(CO)c5)c4n3)c2)n1 [Compound 97],< 1e-08 M,< 1e-08 M
Cc1nccc(-c2cccc(Nc3ncc4nnn(-c5cccc(F)c5)c4n3)c2)n1 [Compound 32],< 1e-08 M,< 1e-08 M
COCc1cccc(-n2nnc3cnc(Nc4cccc(-c5cnco5)c4)nc32)c1 [Compound 98],< 1e-08 M,< 1e-08 M
c1ccc(-n2nnc3cnc(Nc4cccc(-c5cnco5)c4)nc32)cc1 [Compound 73],< 1e-08 M,< 1e-08 M
COCCOc1cccc(-n2nnc3cnc(Nc4ccc(C(=O)N5CCN(C)CC5)cc4)nc32)c1 [Compound 133],< 1e-08 M,1e-08 to 1e-07 M
CC(C)CC(=O)NCc1cccc(-n2nnc3cnc(Nc4cccc(-c5cnco5)c4)nc32)c1 [Compound 120],1e-08 to 1e-07 M,1e-08 to 1e-07 M
COCc1cccc(-n2nnc3cnc(Nc4ccc(OCCCN5CCN(C)CC5)cc4)nc32)c1 [Compound 106],< 1e-08 M,1e-08 M
Cn1cc(Br)c(-c2cccc(Nc3ncc4nnn(-c5cccc(Br)c5)c4n3)c2)n1 [Compound 45],,1e-08 to 1e-07 M
CN1CCN(c2cccc(Nc3ncc4nnn(-c5cccc(F)c5)c4n3)c2)CC1 [Compound 36],< 1e-08 M,< 1e-08 M
COCCOc1cccc(-n2nnc3cnc(Nc4ccc(OCCN5CCN(C)CC5)cc4)nc32)c1 [Compound 153],,1e-08 to 1e-07 M
CN1CCN(Cc2ccc(Nc3ncc4nnn(-c5cccc(CCO)c5)c4n3)cc2)CC1 [Compound 78],< 1e-08 M,< 1e-08 M
COc1cc(-n2nnc3cnc(Nc4cccc(-c5nccn5C)c4)nc32)cc(C(F)(F)F)c1 [Compound 63],,< 1e-08 M
Cc1nccc(-c2cccc(Nc3ncc4nnn(-c5cccc(Br)c5)c4n3)c2)n1 [Compound 48],,1e-08 to 1e-07 M
Cn1ccnc1-c1cccc(Nc2ncc3nnn(-c4ccc(Br)cc4)c3n2)c1 [Compound 49],,1e-08 to 1e-07 M
Fc1cccc(-n2nnc3cnc(Nc4cccc(-c5cncnc5)c4)nc32)c1 [Compound 31],,< 1e-08 M
COc1cccc(-n2nnc3cnc(Nc4cccc(-c5nccn5C)c4)nc32)c1 [Compound 17],,< 1e-08 M

SMILES,IC50 (GSK3alpha),IC50 (GSK3β)
Nc1nccc(-c2cccc(Nc3ncc4nnn(-c5cccc(CNC(=O)C6CC6)c5)c4n3)c2)n1 [Compound 119],1e-08 to 1e-07 M,
CC(=O)N(C)c1ccc(-n2nnc3cnc(Nc4cccc(-c5nccn5C)c4)nc32)cc1 [Compound 57],,> 1e-07 M
Cc1ccc(-n2nnc3cnc(Nc4cccc(-c5nccn5C)c4)nc32)cc1Cl [Compound 60],,1e-08 to 1e-07 M
COCCOCc1cccc(-n2nnc3cnc(Nc4ccc(N5CCOCC5)cc4)nc32)c1 [Compound 107],,< 1e-08 M
Cn1ccnc1-c1cccc(Nc2ncc3nnn(-c4ccc5cn[nH]c5c4)c3n2)c1 [Compound 148],,1e-08 to 1e-07 M
Cn1ccnc1-c1cccc(Nc2ncc3nnn(-c4ccc5c(c4)CCC5)c3n2)c1 [Compound 65],,< 1e-08 M
COc1ccc(-n2nnc3cnc(Nc4cccc(-c5nccn5C)c4)nc32)cc1F [Compound 61],,1e-08 to 1e-07 M
COc1ccc(-n2nnc3cnc(Nc4cccc(-c5nccn5C)c4)nc32)cc1 [Compound 3],,< 1e-08 M
Cn1ccnc1-c1cccc(Nc2ncc3nnn(-c4ccc(CCO)cc4)c3n2)c1 [Compound 56],,1e-08 to 1e-07 M
Cn1ccnc1-c1cccc(Nc2ncc3nnn(-c4ccc5c(c4)OCCO5)c3n2)c1 [Compound 66],,< 1e-08 M
Brc1cccc(-n2nnc3cnc(Nc4ccc(-n5cncn5)cc4)nc32)c1 [Compound 51],,1e-08 to 1e-07 M
O=C(O)c1cc(Nc2ncc3nnn(-c4cccc(F)c4)c3n2)ccc1N1CCOCC1 [Compound 150],1e-08 to 1e-07 M,
Fc1cccc(-n2nnc3cnc(Nc4ccc(-n5cccc5)cc4)nc32)c1 [Compound 37],,> 1e-07 M
CSc1ccc(-n2nnc3cnc(Nc4cccc(-c5nccn5C)c4)nc32)cc1 [Compound 55],,1e-08 to 1e-07 M
Cc1cccc(-n2nnc3cnc(Nc4cccc(-c5nccn5C)c4)nc32)c1 [Compound 14],,< 1e-08 M
